Reference: ChEMBL document CHEMBL5465560, “Selectivity Literature for EUbOPEN Chemogenomic Library” (2024)

How the values were obtained:
[1] = target: Casein kinase I isoform alpha (Homo sapiens, UniProt P48729); assay: Selectivity interaction (Kinase panel (literature)) EUB0001199aCl CSNK1A1; details: at 1 µM
[2] = target: Mitogen-activated protein kinase kinase kinase 11 (Homo sapiens) (UniProt Q16584); assay: Selectivity interaction (KinomeScan (DiscoverX)) EUB0000666a MAP3K11; details: at 10 µM
[3] = target: Ribosomal protein S6 kinase alpha-3 (Homo sapiens, UniProt P51812); assay: Selectivity interaction (ActivX KiNativ screen (kinase selectivity in THP-1 cell lysates)) EUB0000639a RPS6KA3; assay type: subcellular; details: lysate, at 0.01 µM
[4] = target: Serine/threonine-protein kinase Chk2 (Homo sapiens) (UniProt O96017); assay: Selectivity interaction (ActivX KiNativ screen (kinase selectivity in THP-1 cell lysates)) EUB0000639a CHEK2; assay type: subcellular; details: lysate, at 5 µM
[5] = target: Ribosomal protein S6 kinase alpha-1 (Homo sapiens, UniProt Q15418); assay: Selectivity interaction (ActivX KiNativ screen (kinase selectivity in THP-1 cell lysates)) EUB0000639a RPS6KA1; assay type: subcellular; details: lysate, at 0.01 µM
[6] = target: Cell division control protein 42 homolog (Homo sapiens) (UniProt P60953); assay: Selectivity interaction (Kinase panel (Invitrogen)) EUB0000639a CDC42; details: at 200 nM
[7] = target: T1, Serine/threonine-protein kinase D3 (Homo sapiens) (UniProt O94806); assay: Selectivity interaction (KinomeScan (DiscoverX)) EUB0000045b PRKD3
T1 sequence (whole entry): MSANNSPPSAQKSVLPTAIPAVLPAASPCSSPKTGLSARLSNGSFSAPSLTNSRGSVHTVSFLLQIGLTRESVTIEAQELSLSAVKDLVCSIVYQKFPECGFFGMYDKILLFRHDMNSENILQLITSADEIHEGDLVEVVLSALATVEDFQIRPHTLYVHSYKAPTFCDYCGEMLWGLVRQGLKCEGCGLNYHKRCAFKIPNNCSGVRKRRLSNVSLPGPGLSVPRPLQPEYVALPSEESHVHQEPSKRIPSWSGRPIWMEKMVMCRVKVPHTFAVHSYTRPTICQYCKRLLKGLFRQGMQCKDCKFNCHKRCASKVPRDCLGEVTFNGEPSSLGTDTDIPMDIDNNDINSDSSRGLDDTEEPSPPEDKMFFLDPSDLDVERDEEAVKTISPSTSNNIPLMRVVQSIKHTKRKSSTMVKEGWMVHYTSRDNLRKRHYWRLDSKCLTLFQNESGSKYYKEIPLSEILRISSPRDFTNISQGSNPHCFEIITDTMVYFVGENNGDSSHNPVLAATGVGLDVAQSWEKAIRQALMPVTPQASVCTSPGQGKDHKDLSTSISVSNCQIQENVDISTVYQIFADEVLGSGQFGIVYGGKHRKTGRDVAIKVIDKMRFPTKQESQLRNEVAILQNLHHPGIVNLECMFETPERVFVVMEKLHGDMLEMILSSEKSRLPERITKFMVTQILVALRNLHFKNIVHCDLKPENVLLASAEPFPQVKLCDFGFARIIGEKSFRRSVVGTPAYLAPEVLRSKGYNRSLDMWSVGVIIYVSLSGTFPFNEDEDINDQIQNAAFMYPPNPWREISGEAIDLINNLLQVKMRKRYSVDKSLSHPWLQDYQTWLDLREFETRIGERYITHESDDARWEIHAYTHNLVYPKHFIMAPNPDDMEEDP

[8] = target: T2, Serine/threonine-protein kinase 17A (Homo sapiens) (UniProt Q9UEE5); assay: Selectivity interaction (KinomeScan (DiscoverX)) EUB0000045b STK17A
T2 sequence (whole entry): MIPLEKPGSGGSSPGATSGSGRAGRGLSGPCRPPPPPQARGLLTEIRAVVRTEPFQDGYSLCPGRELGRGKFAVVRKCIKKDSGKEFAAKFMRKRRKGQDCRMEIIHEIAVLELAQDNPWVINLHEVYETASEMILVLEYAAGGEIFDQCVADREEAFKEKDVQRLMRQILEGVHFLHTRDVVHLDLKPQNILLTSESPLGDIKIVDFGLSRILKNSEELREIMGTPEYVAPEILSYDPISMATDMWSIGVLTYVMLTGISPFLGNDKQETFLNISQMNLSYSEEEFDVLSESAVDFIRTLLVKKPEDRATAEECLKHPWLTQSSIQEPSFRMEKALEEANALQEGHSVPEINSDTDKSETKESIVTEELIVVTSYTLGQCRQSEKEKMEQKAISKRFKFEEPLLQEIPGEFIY

[9] = target: Tyrosine-protein kinase BTK (Homo sapiens, UniProt Q06187); assay: Selectivity interaction (KinomeScan (DiscoverX)) EUB0000618a BTK; details: at 10 µM
[10] = target: T3, Dual specificity mitogen-activated protein kinase kinase 4 (Homo sapiens) (UniProt P45985); assay: Selectivity interaction (ActivX KiNativ screen (ex vivo kinase selectivity in human PBMCs)) EUB0001619a MAP2K4; assay type: cell-based; details: PBMC, at 1 µM
T3 sequence (whole entry): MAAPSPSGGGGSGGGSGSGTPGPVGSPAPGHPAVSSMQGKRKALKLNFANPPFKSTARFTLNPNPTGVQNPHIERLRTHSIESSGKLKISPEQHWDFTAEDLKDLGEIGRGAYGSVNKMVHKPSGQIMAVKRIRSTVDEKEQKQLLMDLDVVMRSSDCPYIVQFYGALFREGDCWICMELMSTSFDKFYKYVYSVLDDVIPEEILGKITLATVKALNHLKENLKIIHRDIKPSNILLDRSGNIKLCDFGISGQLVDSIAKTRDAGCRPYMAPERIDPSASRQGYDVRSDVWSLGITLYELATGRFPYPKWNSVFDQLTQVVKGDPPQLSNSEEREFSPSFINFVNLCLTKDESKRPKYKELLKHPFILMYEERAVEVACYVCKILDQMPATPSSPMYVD

[11] = target: Mitogen-activated protein kinase 9 (Homo sapiens, UniProt P45984); assay: Selectivity interaction (ProQinase) EUB0000171b MAPK9
Mitogen-activated protein kinase 9, sequence (P45984 whole entry, looked up): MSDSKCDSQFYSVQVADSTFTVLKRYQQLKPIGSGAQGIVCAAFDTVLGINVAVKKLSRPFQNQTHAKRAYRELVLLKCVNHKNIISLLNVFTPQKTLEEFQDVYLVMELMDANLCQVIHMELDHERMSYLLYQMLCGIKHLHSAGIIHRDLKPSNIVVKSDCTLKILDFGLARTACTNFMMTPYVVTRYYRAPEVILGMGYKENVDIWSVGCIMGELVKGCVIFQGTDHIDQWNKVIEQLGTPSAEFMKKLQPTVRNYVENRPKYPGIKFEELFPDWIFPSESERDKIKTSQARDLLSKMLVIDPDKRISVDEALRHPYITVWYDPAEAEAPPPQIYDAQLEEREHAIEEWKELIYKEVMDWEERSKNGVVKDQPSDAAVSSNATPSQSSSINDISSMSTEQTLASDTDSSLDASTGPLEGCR

Casein kinase I isoform alpha, sequence (P48729 2-337 limits assumed): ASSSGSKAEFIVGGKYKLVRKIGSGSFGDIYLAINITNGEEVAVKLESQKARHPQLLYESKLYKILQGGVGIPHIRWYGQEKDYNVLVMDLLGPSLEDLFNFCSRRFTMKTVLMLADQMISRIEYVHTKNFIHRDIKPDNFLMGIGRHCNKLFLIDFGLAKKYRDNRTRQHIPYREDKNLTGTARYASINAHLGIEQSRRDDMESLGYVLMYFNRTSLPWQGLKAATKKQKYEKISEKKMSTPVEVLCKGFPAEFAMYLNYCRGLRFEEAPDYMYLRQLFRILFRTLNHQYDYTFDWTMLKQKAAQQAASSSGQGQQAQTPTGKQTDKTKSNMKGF
Mitogen-activated protein kinase kinase kinase 11 (Homo sapiens), sequence (Q16584 whole entry, looked up): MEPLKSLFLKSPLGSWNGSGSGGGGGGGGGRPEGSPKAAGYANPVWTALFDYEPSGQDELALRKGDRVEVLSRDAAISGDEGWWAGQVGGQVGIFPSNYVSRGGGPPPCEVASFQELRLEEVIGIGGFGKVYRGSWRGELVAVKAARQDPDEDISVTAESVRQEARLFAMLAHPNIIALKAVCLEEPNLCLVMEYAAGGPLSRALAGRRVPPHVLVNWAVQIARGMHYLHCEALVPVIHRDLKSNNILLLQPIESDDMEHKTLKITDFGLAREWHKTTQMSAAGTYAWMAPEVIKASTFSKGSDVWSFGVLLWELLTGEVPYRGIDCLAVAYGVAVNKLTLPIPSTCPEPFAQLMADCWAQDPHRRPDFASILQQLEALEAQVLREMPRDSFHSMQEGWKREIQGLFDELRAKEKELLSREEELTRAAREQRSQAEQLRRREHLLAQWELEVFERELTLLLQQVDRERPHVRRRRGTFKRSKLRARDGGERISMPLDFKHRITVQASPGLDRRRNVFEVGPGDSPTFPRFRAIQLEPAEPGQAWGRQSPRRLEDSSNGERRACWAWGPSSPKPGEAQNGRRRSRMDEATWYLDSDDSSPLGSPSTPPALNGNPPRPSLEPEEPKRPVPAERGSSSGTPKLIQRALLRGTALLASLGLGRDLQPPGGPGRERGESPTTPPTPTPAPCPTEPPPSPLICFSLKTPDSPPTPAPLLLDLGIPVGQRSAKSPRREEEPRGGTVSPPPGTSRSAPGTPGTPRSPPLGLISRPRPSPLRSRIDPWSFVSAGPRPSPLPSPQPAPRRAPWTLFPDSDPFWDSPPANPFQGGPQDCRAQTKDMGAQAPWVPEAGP
Tyrosine-protein kinase BTK, sequence (Q06187 whole entry): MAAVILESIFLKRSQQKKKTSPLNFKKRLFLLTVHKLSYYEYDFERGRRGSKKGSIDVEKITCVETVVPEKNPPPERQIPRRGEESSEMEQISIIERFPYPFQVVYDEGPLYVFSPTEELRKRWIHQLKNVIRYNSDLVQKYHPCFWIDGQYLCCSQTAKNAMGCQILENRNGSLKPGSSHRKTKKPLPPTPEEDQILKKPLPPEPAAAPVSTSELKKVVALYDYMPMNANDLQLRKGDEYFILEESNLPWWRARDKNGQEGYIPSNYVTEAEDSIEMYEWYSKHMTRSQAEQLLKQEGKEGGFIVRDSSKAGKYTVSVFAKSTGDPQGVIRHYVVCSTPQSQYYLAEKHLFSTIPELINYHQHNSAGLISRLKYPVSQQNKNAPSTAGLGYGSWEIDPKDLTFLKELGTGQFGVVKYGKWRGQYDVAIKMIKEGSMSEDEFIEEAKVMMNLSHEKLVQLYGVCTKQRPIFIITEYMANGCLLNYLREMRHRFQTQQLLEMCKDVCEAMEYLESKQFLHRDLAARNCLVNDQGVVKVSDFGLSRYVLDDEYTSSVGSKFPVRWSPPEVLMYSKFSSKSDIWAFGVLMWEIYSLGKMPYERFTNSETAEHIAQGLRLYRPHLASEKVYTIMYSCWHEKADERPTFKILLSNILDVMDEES
Ribosomal protein S6 kinase alpha-3, sequence (P51812 whole entry): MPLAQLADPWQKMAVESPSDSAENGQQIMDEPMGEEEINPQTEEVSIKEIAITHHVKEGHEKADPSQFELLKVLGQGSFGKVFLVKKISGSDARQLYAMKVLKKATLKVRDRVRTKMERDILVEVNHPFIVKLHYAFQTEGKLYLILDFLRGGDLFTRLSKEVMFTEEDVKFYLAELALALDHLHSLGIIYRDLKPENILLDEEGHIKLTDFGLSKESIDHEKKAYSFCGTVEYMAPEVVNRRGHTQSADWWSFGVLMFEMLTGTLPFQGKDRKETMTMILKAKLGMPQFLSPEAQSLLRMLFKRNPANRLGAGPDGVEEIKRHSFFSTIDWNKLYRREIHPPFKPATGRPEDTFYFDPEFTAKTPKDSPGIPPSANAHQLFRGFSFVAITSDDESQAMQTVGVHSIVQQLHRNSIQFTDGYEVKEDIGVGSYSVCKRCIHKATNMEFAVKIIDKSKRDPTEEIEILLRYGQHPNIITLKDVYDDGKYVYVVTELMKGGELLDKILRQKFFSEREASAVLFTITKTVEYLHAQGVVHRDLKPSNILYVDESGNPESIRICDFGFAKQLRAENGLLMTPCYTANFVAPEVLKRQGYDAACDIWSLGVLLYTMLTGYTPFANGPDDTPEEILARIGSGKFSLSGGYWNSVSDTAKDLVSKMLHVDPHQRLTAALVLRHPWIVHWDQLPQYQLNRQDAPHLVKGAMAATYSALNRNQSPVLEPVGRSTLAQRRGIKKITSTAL
Ribosomal protein S6 kinase alpha-1, sequence (Q15418 whole entry): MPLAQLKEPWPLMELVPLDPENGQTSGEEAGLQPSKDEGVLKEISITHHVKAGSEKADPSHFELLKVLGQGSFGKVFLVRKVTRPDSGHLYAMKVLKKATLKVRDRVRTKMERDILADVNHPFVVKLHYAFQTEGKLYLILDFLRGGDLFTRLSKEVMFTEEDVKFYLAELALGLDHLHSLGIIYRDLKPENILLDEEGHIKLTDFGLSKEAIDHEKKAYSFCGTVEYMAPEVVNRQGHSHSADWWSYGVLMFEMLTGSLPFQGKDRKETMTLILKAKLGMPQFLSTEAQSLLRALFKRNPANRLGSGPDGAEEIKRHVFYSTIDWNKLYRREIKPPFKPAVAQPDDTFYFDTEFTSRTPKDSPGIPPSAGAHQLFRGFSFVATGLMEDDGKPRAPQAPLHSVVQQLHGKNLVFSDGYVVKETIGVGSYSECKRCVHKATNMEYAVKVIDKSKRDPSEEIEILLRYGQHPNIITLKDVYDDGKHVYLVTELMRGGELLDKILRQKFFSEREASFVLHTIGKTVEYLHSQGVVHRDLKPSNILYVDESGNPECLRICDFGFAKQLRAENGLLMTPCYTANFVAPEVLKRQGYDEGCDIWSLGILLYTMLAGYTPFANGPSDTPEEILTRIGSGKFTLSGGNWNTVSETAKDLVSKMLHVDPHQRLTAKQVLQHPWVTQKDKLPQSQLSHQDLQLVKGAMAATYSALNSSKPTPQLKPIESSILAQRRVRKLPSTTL
Cell division control protein 42 homolog (Homo sapiens), sequence (P60953 whole entry, looked up): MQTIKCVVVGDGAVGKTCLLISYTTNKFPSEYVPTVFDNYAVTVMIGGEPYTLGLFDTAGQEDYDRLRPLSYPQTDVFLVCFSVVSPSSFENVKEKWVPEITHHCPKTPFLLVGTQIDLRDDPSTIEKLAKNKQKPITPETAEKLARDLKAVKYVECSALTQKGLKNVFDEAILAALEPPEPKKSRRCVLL
Serine/threonine-protein kinase Chk2 (Homo sapiens), sequence (O96017 whole entry): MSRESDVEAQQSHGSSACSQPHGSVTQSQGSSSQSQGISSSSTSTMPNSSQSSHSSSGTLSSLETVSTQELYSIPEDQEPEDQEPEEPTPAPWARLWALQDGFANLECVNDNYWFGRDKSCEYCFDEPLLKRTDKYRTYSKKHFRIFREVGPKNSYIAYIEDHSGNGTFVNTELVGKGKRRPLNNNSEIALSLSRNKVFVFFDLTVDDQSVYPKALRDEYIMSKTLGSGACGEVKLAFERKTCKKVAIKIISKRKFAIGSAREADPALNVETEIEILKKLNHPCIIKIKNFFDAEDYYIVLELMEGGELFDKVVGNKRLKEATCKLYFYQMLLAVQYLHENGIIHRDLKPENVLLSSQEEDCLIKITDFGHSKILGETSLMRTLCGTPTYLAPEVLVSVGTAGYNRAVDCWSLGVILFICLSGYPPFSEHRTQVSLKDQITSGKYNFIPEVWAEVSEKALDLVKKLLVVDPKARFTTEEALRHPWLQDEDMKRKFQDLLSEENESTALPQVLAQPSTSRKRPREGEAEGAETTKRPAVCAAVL

`CN1Cc2nccc(-c3cn(C)nc3-c3ccc(F)cc3)c2C1=O` gave a % of inhibition [1] of 51%.

For `O=C(NOC[C@H](O)CO)c1ccc(F)c(F)c1Nc1ccc(I)cc1F`, the % of control [2] was 100%.

For `CC[C@@H]1[C@H](F)C(=O)N[C@@H]1COc1nccc2cc(C(N)=O)c(OC)cc12` [ZIMLOVISERTIB], the % of inhibition [3] was -9.7%, the % of inhibition [4] was 65.9% and the % of inhibition [5] was 25.4%. It also gave a % of inhibition [6] of 10.2%.

Work on `C=CC(=O)Nc1cc(-n2c(=O)ccc3cnc4ccc(-c5ccc(NS(C)(=O)=O)cc5)cc4c32)ccc1C` yielded a % of control ([7]; at 1 µM) of 82%, a % of control ([7]; at 10 µM) of 68% and a % of control ([8]; at 1 µM) of 100%. The % of control ([8]; at 10 µM) was 100%.

`O[C@H]1CC[C@H](Nc2ncc3nc(Nc4c(F)cc(F)cc4F)n([C@H]4CCOC4)c3n2)CC1` gave a % of control [9] of 100%.

`N#Cc1cccc(-c2c[nH]c3ncnc(N4CCOCC4)c23)c1` gave a % of inhibition [10] of 2%.

Compound `C=CC(=O)Nc1cccc(C(=O)Nc2ccc(Nc3cc(-c4[nH]c(SC)nc4C)ccn3)cc2)c1` has a % of control ([11]; at 1 µM) of 8% and a % of control ([11]; at 5 µM) of 1%.
